Source: patent EP0115929A1, “Novel organic platinum complex and process for the preparation thereof” (priority 1983, dated 1984)

Columns and labels:
Leukemia L-1210 = assay: Effect on life span of mice implanted with Leukemia L-1210 (Method B); format: in vivo; conditions: for ILS30: denominator in brackets of the therapeutic index cell; for ILS30 / OD: dose column in mg/kg/day; for 60-day survivors: survivors/mice in group; for OD: numerator in brackets of the therapeutic index cell; for increase in the life span of mice: dose of 50 mg/kg/day
Experimental: […] test compound was begun 24 hours after the inoculation of the leukemic cells and performed once a day for 5 days. The survival days of the treated mice were observed.

[1] = test system: Ehrlich ascites carcinoma; assay: Preventive effect against the growth of Ehrlich ascites carcinoma (Method A); format: in vivo, mice; conditions: for MTD: footnote *3 in image, dose column in mg/kg/day; for MED: footnote *4 in image, b22: minimum effective dose per day which causes 100 % inhibition, in mg/kg/day; for M.E.D.: minimum effective dose per day which causes 100 % inhibition of Ehrlich ascites carcinoma
From the text: It may be useful to prolong the survival time of warm-blood .animals, including human,.afflicted with tumors and/or minimize the growth of tumors in said animals. […] The compound of the present invention is also useful for the treatment of various other tumors such as prostate tumor, orchis tumor, ovary tumor, malignant lymphoma, leukemia, breast cancer and the like.

[2] = dose 1.56 mg/kg/day, (C - T)/C x 100
[3] = dose 3.12 mg/kg/day, (C - T)/C x 100
[4] = dose 6.25 mg/kg/day, (C - T)/C x 100
[5] = dose 25 mg/kg/day, (C - T)/C x 100
[6] = dose 100 mg/kg/day, (C - T)/C x 100
[7] = dose 200 mg/kg/day, cell prints toxicity instead of inhibition (footnote *6 in image)

Substance | ILS30 (Leukemia L-1210) | ILS (%) (Leukemia L-1210; dose 1.56 mg/kg/day) | 60-day survivors (Leukemia L-1210; dose 1.56 mg/kg/day) | ILS (%) (Leukemia L-1210; dose 3.12 mg/kg/day) | 60-day survivors (Leukemia L-1210; dose 3.12 mg/kg/day) | ILS (%) (Leukemia L-1210; dose 6.25 mg/kg/day) | 60-day survivors (Leukemia L-1210; dose 6.25 mg/kg/day) | ILS (%) (Leukemia L-1210; dose 12.5 mg/kg/day) | 60-day survivors (Leukemia L-1210; dose 12.5 mg/kg/day) | ILS (%) (Leukemia L-1210; dose 25 mg/kg/day) | 60-day survivors (Leukemia L-1210; dose 25 mg/kg/day) | ILS (%) (Leukemia L-1210; dose 50 mg/kg/day) | 60-day survivors (Leukemia L-1210; dose 50 mg/kg/day) | ILS (%) (Leukemia L-1210; dose 100 mg/kg/day) | 60-day survivors (Leukemia L-1210; dose 100 mg/kg/day) | OD (Leukemia L-1210) | Inhibition rate (%) [1, 2] [%] | Inhibition rate (%) [1, 3] [%] | Inhibition rate (%) [1, 4] [%] | Inhibition rate (%) [1, 5] [%] | also measured
cis-Dioxamato(2-aminomethylpyridine) platinum (II) [Compound 3] | 1.65 | 28.6 | 0/4 | 47.1 | 0/4 | 85.7 | 0/4 | 90.0 | 0/4 | 100.0 | 0/4 | >607.1 | 3/4 | >757.1 | 4/4 | 100 |  |  |  |  | 
cis-Malonato(2-aminomethylpyridine) platinum (II) [Compound 2] | 1.8 | 25.7 | 0/4 | 47.1 | 0/4 | 61.4 | 0/4 | 92.9 | 0/4 | 185.7 | 0/4 | >757.1 | 4/4 | >757.1 | 4/4 | 100 | 12.9 | 100 | 100 | 100 | Inhibition rate (%) [1, 6]: 100%; Inhibition rate (%) [1, 7]: Toxic(5/5)^*6; MTD [1]: 100; MED [1]: 3.12; M.E.D. [1]: 3.12 mg/kg/day; increase in the life span of mice (Leukemia L-1210): more than 745%
cis-Oxalato(2-aminomethylpyridine) platinum (II) [Compound 1] | 1.3 | 33.8 | 0/4 | 52.1 | 0/4 | 80.3 | 0/4 | >269.0 | 1/4 | >463.4 | 2/4 | >745.1 | 4/4 | >745.1 | 4/4 | 100 | 21.9 | 100 | 100 | 100 | Inhibition rate (%) [1, 6]: 100%; Inhibition rate (%) [1, 7]: Toxic(5/5)^*6; MTD [1]: 100; MED [1]: 3.12; M.E.D. [1]: 3.12 mg/kg/day; ILS (%) (Leukemia L-1210; dose 0.78 mg/kg/day): 19.7%; 60-day survivors (Leukemia L-1210; dose 0.78 mg/kg/day): 0/4; increase in the life span of mice (Leukemia L-1210): more than 745%
